Measurements from paper PMC5054527, “Mechanism of high affinity inhibition of the human urate transporter URAT1” (Scientific Reports, 2016).
Substitutions are numbered along the chain they refer to. Where two headings read alike, the source gives them in different places.

Key:
Experiment in all cases: URAT1 uric acid transport activity assay
Assay type in all cases: cell-based
[1] = molecular target: T1, r-T26V rURAT1 point mutant (Rattus norvegicus, UniProt Q3ZAV1, T26V)
T1 sequence (Q3ZAV1 1-553 T26V): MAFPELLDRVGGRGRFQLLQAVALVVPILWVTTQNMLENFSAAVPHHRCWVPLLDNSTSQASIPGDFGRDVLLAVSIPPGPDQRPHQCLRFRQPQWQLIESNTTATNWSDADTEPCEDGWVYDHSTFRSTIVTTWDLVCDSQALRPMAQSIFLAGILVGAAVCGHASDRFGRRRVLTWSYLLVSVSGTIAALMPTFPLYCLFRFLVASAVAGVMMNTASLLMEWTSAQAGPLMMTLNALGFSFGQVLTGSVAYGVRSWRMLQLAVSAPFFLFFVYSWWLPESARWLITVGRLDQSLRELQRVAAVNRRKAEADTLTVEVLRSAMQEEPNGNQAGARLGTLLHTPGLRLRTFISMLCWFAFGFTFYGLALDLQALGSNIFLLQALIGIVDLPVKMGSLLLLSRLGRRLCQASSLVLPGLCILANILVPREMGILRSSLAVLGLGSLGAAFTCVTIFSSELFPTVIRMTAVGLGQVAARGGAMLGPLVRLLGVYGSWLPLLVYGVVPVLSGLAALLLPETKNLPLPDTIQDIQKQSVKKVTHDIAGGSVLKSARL
Excerpt: (§1) hURAT1 (GenBank BC053348.1) and rURAT1 (NCBI NM_001034943.1) genes were purchased from Origene Technologies, Inc. and subcloned into pCMV6/neo using NotI, creating pCMV6/neo-hURAT1 and pCMV6/neo-rURAT1. Mutants were produced by polymerase chain reaction (PCR) or site-directed mutagenesis using the QuikChange Lightning Multi Site-Directed Mutagenesis Kit (Agilent Technologies). […] Detailed methods are provided in Supplementary Methods, and primers are listed in Supplementary Table 1. […] Residues in rURAT1 and hOAT1 that correspond to the residues in hURAT1 were identified from aligned protein sequences (Supplementary Fig. 1)[50].
(§2) DNA (10 μg) was mixed with 30 μl of DreamFect Gold (Boca Scientific) in 2 ml OptiMem (Life Technologies). After 20 minutes, 18 ml of media containing 2 × 10^7 cells in suspension was added and mixed, and 200 μl per well were plated onto white clear-bottomed poly-D-lysine coated 96-well plates (BD Biosciences). The cells were assayed the following day.
(§3) Compounds were serially diluted into assay buffer and added to the cells for 5 minutes prior to addition of radiolabelled uric acid substrate. URAT1-expressing cells were incubated with 100 μM ^14C-uric acid for 10 minutes. […] Each treatment was measured in triplicate.
(§4) Unlabelled uric acid was prepared at a 20 mM stock just prior to use in a solution containing 20 mM dibasic potassium phosphate and 20 mM potassium hydroxide.
(§5) Nonlinear regression analyses using GraphPad Prism software were used to calculate the potency of URAT1 inhibitors (IC50 values) from log (inhibitor) versus response - variable slope (four parameters) equations. Statistical significance was assessed using Student’s unpaired t-tests.

[2] = molecular target: T2, r-T32C rURAT1 point mutant (Rattus norvegicus, UniProt Q3ZAV1, T32C)
T2 sequence (Q3ZAV1 1-553 T32C): T1 sequence (Q3ZAV1 1-553 T26V) with V26T, T32C
Excerpt: as §1, §2, §3, §4, §5

[3] = molecular target: T3, r-F351C rURAT1 point mutant (Rattus norvegicus, UniProt Q3ZAV1, F351C)
T3 sequence (Q3ZAV1 1-553 F351C): T1 sequence (Q3ZAV1 1-553 T26V) with V26T, F351C
Excerpt: as §1, §2, §3, §4, §5

CCc1oc2ccccc2c1C(=O)c1cc(Br)c(O)c(Br)c1 [benzbromarone]
IC50 [1]: 26 ± 4.4 µM
IC50 [2]: 24 ± 4 µM
IC50 [3]: 24 ± 3.3 µM

O=C1C(CC[S+]([O-])c2ccccc2)C(=O)N(c2ccccc2)N1c1ccccc1 (stereo not drawn) [sulfinpyrazone]
IC50 ([1]; r-T26V, HEPES pH 7.3, 100 μM 14C-uric acid, read-out: IC50 (uric acid transport)): 655 ± 191 µM
IC50 ([2]; r-T32C, HEPES pH 7.3, 100 μM 14C-uric acid, read-out: IC50 (uric acid transport)): 691 ± 98 µM
IC50 ([3]; r-F351C, HEPES pH 7.3, 100 μM 14C-uric acid, read-out: IC50 (uric acid transport)): 924 ± 276 µM

O=C(O)CSc1nnc(Br)n1-c1ccc(C2CC2)c2ccccc12 [lesinurad, 2-((5-bromo-4-(4-cyclopropylnaphthalen-1-yl)-4H-1,2,4-triazol-3-yl)thio)acetic acid]
IC50 ([1]; r-T26V, MES pH 5.5, 100 μM 14C-uric acid, read-out: IC50 (uric acid transport)): 76 ± 2.3 µM
IC50 ([2]; r-T32C, MES pH 5.5, 100 μM 14C-uric acid, read-out: IC50 (uric acid transport)): 73 ± 5.9 µM
IC50 ([3]; r-F351C, MES pH 5.5, 100 μM 14C-uric acid, read-out: IC50 (uric acid transport)): 82 ± 1.7 µM
